Assay results as given in patent publication US11980596B2 (priority 2017, dated 2024).
Where “and” joins values, the source holds several entries; their conditions need not be identical. Equal values may be shown once. Entries after “also recorded” stand apart in the source; their conditions may differ. Where a name gives a salt, the structure may show the parent alone. Marks after values point to notes of the source that are not given here.

Tests used:
[1] = test system: MDD/TRD subjects; settings: 52-week safety study in MDD/TRD subjects (Berman et al., 2011); cited from earlier work
[2] = test system: female Sprague-Dawley rats; test: Single dose neurotoxicity study: mortality, clinical observations, body weight; format: in vivo, rat; settings: for Abnormal respiration, incidence / Abnormal respiration: audible respiration, incidence / Abnormal respiration: bradypnoea, incidence / Ataxia, incidence / Catalepsy, incidence / Chromodacryorrhea, incidence / Decreased general activity, incidence / Decubitus, incidence / Increased general activity, incidence / Narrowed palpebral fissure, incidence / Piloerection, incidence / Salivation (out of normal), incidence: single dose
Method: The injection volume was 5 mL/kg.
(§1) Body weight and body weight gain were measured daily.

[3] = test system: glutamate NMDA receptor; test: Affinity for the NMDA receptor in vitro; format: binding
[4] = test system: CYPs and UGTs
[5] = Clinical pharmacokinetics of esketamine (label)
[6] = Pharmacokinetics of intranasal esketamine in healthy subjects (Example 9)
Method: Blood samples (4 mL each) for determination of esketamine and noresketamine plasma concentrations were collected into the appropriate collection tube (e.g., Vacutainer®) at timepoints 0.00, 0.12, 0.20, 0.37, 0.53, 0.67, 0.83, 1.00, 1.25, 1.50, 2.00, 3.00, 4.00, 6.00, 9.00, 12.00, 18.00, and 24.00 h. The total amount of blood to be drawn for clinical laboratory tests and PK evaluations is approximately 327 mL.
Plasma samples were analyzed for esketamine and noresketamine concentrations using the validated, specific and sensitive liquid chromatography coupled to tandem mass spectrometry (LC-MS/MS) achiral method of Example 8.
Serial PK blood samples (4 mL each) were collected for a 24-hour period from each subject (Periods 1, 2, and 3). […] Statistical Methods 1.6.4.1. Sample Size
The following key parameters of esketamine and noresketamine in plasma were calculated using noncompartmental methods and actual sampling times: Cmax, tmax, AUClast, AUC∞, t1/2,λ, and λz.

[7] = test system: posterior cingulate gyrus (PCG) and retrosplenial cortex (RSC); test: Single dose neurotoxicity study: brain histopathology (neuronal necrosis); settings: single dose of 72 mg; 48 or 96 hours; hydrochloride
Method: In order to prepare for brain histopathology examination, all main study animals were perfused at necropsy. Prior to the perfusion, rats were anesthetized with isoflurane. After injection of 0.1 ml heparin, the blood of the rat was flushed out with a physiological saline solution by intraarterial insertion of a needle in the abdominal aorta. Thereafter the rat was perfused with glutaraldehyde 3% in potassium phosphate 0.09M and 1.4% sucrose.
The vehicle control, positive control, and esketamine HCl-dosed animals were sacrificed at either 48 hours (i.e., the first 12 or 15 rats per group) or 96 hours after the dose administration time (i.e., the last 12 or 15 rats per group). The brain tissue of the vehicle control-, positive control- and esketamine HCl-treated rats were processed at the same time and handled in the same way in batches of 4 or 5 animals per group.
Brain tissue was sampled and processed routinely. The trimmed and embedded tissue was sectioned and stained with hematoxylin-eosin (HE). Histoprocessing and staining were carried out in three batches of 4 animals per group (each batch thus containing 4 animals from vehicle control-, positive control- and the three esketamine HCl-treated groups). In the single dose study duplicate brain sections were stained with Fluoro-Jade (FJ).
All tissues showing gross abnormalities were examined macroscopically. […]

[8] = test system: posterior cingulate gyrus (PCG) and retrosplenial cortex (RSC); test: 14-day repeated dose neurotoxicity study: brain histopathology (neuronal necrosis); settings: up to 54 mg/day; 48 hours after the last instillation; hydrochloride
Method: The brain tissue of the vehicle control-, positive control- and esketamine HCl-treated rats were processed at the same time and handled in the same way in batches of 4 animals per group.
Brain tissue was sampled and processed routinely. The trimmed and embedded tissue was sectioned and stained with hematoxylin-eosin (HE). Histoprocessing and staining were carried out in three batches of 4 animals per group (each batch thus containing 4 animals from vehicle control-, positive control- and the three esketamine HCl-treated groups).
All tissues showing gross abnormalities were examined macroscopically. Histopathological examination was performed on 7 levels of brain tissue according to Bolon (2013. Toxicol. Pathol. 41(7), 1028-1048) from the vehicle control-, positive control-, and high dose esketamine HCl-treated groups in the single dose study, and in all groups in the repeated dose study.
The microscopic finding of neuronal necrosis in the PCG/RSC of the brain was graded unilaterally according to the number of necrotic neurons observed over the total length of the PCG/RSC structure visible in the tissue section (usually around 3-5 mm) utilizing the following criteria:

[9] = Solubility of esketamine HCl
Method: The clinical investigational product is an aqueous solution of the drug substance, esketamine hydrochloride (HCl). This formulation is administered intranasally to patients using a dual nasal spray device, which delivers one spray into each nostril. […] The formulation was stored at 37° C. for stability reasons until dosing.

[10] = test system: female Sprague-Dawley rats; test: 14-day repeated dose neurotoxicity study: mortality, clinical observations, body weight; format: in vivo, rat; settings: 14 days
Method: as §1

[11] = test system: mouse lymphoma; test: In vitro mouse lymphoma test; settings: in the presence of metabolic activation
[12] = test system: adult rats; test: Single-dose neuronal toxicity study, subcutaneous racemic ketamine (label); format: in vivo, rat
Method: (§2) In a single-dose neuronal toxicity study in adult rats, subcutaneously administered racemic ketamine caused neuronal vacuolation in layer I of the retrosplenial cortex of the brain without neuronal necrosis at a dose of 60 mg/kg. The NOAEL for vacuolation in this study was 15 mg/kg. […] The relevance of these findings to humans is unknown.

[13] = as above; format: in vivo, rat; settings: rat, in vivo, sc; single subcutaneous dose; read-out: NOAEL for vacuolation
Method: as §2

[14] = test system: pregnant rats; test: Embryo-fetal toxicity, intranasal racemic ketamine, pregnant rats; format: in vivo, rat; settings: estimating 50% of the exposure to be from esketamine
Method: (§3) Racemic ketamine was administered intranasally to pregnant rats during the period of organogenesis at doses of 15, 50, and 150 mg/kg/day. The No Observed Adverse Effect level (NOAEL) for embryo-fetal toxicity in rats was the highest dose of 150 mg/kg/day. […] In pregnant rabbits, racemic ketamine was administered intranasally from gestational day 6 to 18 at doses of 10, 30, and 100 mg/kg/day. The high dose was lowered from 100 to 50 mg/kg after 5 days of dosing due to excessive mortality in the pregnant rabbits.

[15] = as above; format: in vivo, rat; settings: female, rat, in vivo, inhaled or intranasal; intranasal; period of organogenesis
Method: as §3

[16] = test system: bone marrow; test: In vivo bone marrow micronucleus test; design: species or system mice; settings: intraperitoneally-injected
[17] = test system: adult female Sprague Dawley rats; settings: 3 hours after a single intraperitoneal injection (Jevtovic-Todorovic 2000); cited from earlier work
[18] = Ames test; settings: with or without metabolic activation
[19] = test system: pregnant rabbits; test: Embryo-fetal reproduction study, intranasal ketamine, pregnant rabbits; format: in vivo, rabbit
Method: as §3

[20] = noresketamine in plasma after esketamine 28 mg intranasal (A), n = 13
[21] = noresketamine in plasma after esketamine 56 mg intranasal (B), n = 13
[22] = noresketamine in plasma after esketamine 56 mg intranasal (B), n = 14
[23] = noresketamine in plasma after esketamine 84 mg intranasal (C), n = 12
[24] = noresketamine in plasma after esketamine 84 mg intranasal (C), n = 13
[25] = estimating 50% of the exposure to be from esketamine

Compound: OCCOCCN1CCN(C2=Nc3ccccc3Sc3ccccc32)CC1 [quetiapine]
- Discontinuation rate due to adverse events [1]: 23.7%

Compound: (+)MK-801 maleate [reference compound]
- Mortality ([2]; single subcutaneous dose 1 mg/kg, single dose or repeated dose study): No mortality

Compound: N[C@]1(c2ccccc2Cl)CCCCC1=O [noresketamine]
- Activity at the NMDA receptor relative to esketamine [3]: less affinity
- Inhibition of CYP3A4 [4]: weak reversible inhibition
- Brain-to-plasma ratio, times lower than that of esketamine ([5]; human, in vivo): 4- to 6 times
- Mean terminal t1/2 ([5]; noresketamine in plasma): approximately 8 hours
- AUC (AUClast and AUC∞) variability ([6]; noresketamine): 17.0% to 21.3
- Between-subject variability for Cmax ([6]; noresketamine): 25.8% to 33.7
- AUClast, mean [6, 20]: 454 ng·h/mL
- AUC∞, mean [6, 20]: 508 ng·h/mL
- Cmax, mean [6, 20]: 92.8 ng/mL
- t1/2, mean [6, 20]: 7.74 h
- tmax, median [6, 20]: 1.25 h
- AUC∞, mean [6, 21]: 924^c h * ng/mL
- t1/2, mean [6, 21]: 7.71^c h
- AUClast, mean [6, 22]: 851 ng·h/mL
- Cmax, mean [6, 22]: 154 ng/mL
- tmax, median [6, 22]: 1.50 h
- AUC∞, mean [6, 23]: 1392^b h * ng/mL
- t1/2, mean [6, 23]: 7.48^b h
- AUClast, mean [6, 24]: 1287 ng·h/mL
- Cmax, mean [6, 24]: 241 ng/mL
- tmax, median [6, 24]: 1.50 h
- Metabolite/Parent Ratio, AUC∞ ([6]; noresketamine/esketamine, esketamine 28 mg intranasal (A), n = 12): 3.80^b

Compound: CN[C@]1(c2ccccc2Cl)CCCCC1=O [esketamine HCl, (S)-2-(2-chlorophenyl)-2-(methylamino)cyclohexanone hydrochloride]
- Histopathological lesions in the brain [7]: absent; also recorded: no neuropathological lesions
- Histopathological lesions in the brain [8]: No histopathological lesions
- Maximum solubility, as base ([9]; room temperature, pH 4.5, factor 1.15): 180 mg esketamine base/mL
- Solubility ([9]; water, methanol, ethanol): freely soluble in water and in methanol, and soluble in ethanol
- Abnormal respiration, incidence ([10]; 18 mg/day intranasal): 2/12
- Abnormal respiration: audible respiration, incidence ([10]; 18 mg/day intranasal): 2/12
- Abnormal respiration: bradypnoea, incidence ([10]; 18 mg/day intranasal): 0/12
- Ataxia, incidence ([10]; 18 mg/day intranasal): 12/12***
- Chromodacryorrhea, incidence ([10]; 18 mg/day intranasal): 0/12
- Decreased general activity, incidence ([10]; 18 mg/day intranasal): 5/12
- Decubitus, incidence ([10]; 18 mg/day intranasal): 0/12
- Increased general activity, incidence ([10]; 18 mg/day intranasal): 12/12***
- Salivation (out of normal), incidence ([10]; 18 mg/day intranasal): 12/12***
- Abnormal respiration, incidence ([10]; 36 mg/day intranasal): 11/12***
- Abnormal respiration: audible respiration, incidence ([10]; 36 mg/day intranasal): 6/12**
- Abnormal respiration: bradypnoea, incidence ([10]; 36 mg/day intranasal): 11/12***
- Ataxia, incidence ([10]; 36 mg/day intranasal): 12/12***
- Chromodacryorrhea, incidence ([10]; 36 mg/day intranasal): 0/12
- Decreased general activity, incidence ([10]; 36 mg/day intranasal): 12/12***
- Decubitus, incidence ([10]; 36 mg/day intranasal): 2/12
- Increased general activity, incidence ([10]; 36 mg/day intranasal): 12/12***
- Salivation (out of normal), incidence ([10]; 36 mg/day intranasal): 12/12***
- Abnormal respiration, incidence ([10]; 54 mg/day intranasal): 12/12***
- Abnormal respiration: audible respiration, incidence ([10]; 54 mg/day intranasal): 6/12**
- Abnormal respiration: bradypnoea, incidence ([10]; 54 mg/day intranasal): 12/12***
- Ataxia, incidence ([10]; 54 mg/day intranasal): 12/12***
- Chromodacryorrhea, incidence ([10]; 54 mg/day intranasal): 0/12
- Decreased general activity, incidence ([10]; 54 mg/day intranasal): 12/12***
- Decubitus, incidence ([10]; 54 mg/day intranasal): 8/12***
- Increased general activity, incidence ([10]; 54 mg/day intranasal): 12/12***
- Salivation (out of normal), incidence ([10]; 54 mg/day intranasal): 12/12***
- Abnormal respiration, incidence ([2]; 36 mg intranasal): 22/24 ***
- Abnormal respiration: audible respiration, incidence ([2]; 36 mg intranasal): 10/24 ***
- Abnormal respiration: bradypnoea, incidence ([2]; 36 mg intranasal): 22/24 ***
- Ataxia, incidence ([2]; 36 mg intranasal): 24/24 ***
- Catalepsy, incidence ([2]; 36 mg intranasal): 20/24 ***
- Chromodacryorrhea, incidence ([2]; 36 mg intranasal): 0/24
- Decreased general activity, incidence ([2]; 36 mg intranasal): 23/24 ***
- Decubitus, incidence ([2]; 36 mg intranasal): 23/24 ***
- Increased general activity, incidence ([2]; 36 mg intranasal): 24/24 ***
- Narrowed palpebral fissure, incidence ([2]; 36 mg intranasal): 7/24**
- Piloerection, incidence ([2]; 36 mg intranasal): 0/24
- Salivation (out of normal), incidence ([2]; 36 mg intranasal): 23/24 ***
- Duration of severely decreased activity with decubitus, bradypnea, ptosis and catalepsy (anesthesia) ([2]; 36 mg, after the last instillation): 15 to 30 min
- Abnormal respiration, incidence ([2]; 54 mg intranasal): 22/24 ***
- Abnormal respiration: audible respiration, incidence ([2]; 54 mg intranasal): 3/24
- Abnormal respiration: bradypnoea, incidence ([2]; 54 mg intranasal): 21/24 ***
- Ataxia, incidence ([2]; 54 mg intranasal): 24/24 ***
- Catalepsy, incidence ([2]; 54 mg intranasal): 23/24 ***
- Chromodacryorrhea, incidence ([2]; 54 mg intranasal): 0/24
- Decreased general activity, incidence ([2]; 54 mg intranasal): 23/24 ***
- Decubitus, incidence ([2]; 54 mg intranasal): 23/24 ***
- Increased general activity, incidence ([2]; 54 mg intranasal): 24/24 ***
- Narrowed palpebral fissure, incidence ([2]; 54 mg intranasal): 10/24 ***
- Piloerection, incidence ([2]; 54 mg intranasal): 0/24
- Salivation (out of normal), incidence ([2]; 54 mg intranasal): 24/24 ***
- Duration of ataxia after the decrease in activity had subsided ([2]; 54 mg, hydrochloride): 1.5 to 3 h and 1 to 3 h
- Duration of ataxia after the decrease in activity had subsided ([2]; 72 mg): ≥ 3 h
- Abnormal respiration, incidence ([2]; 72 mg intranasal): 30/30 ***
- Abnormal respiration: audible respiration, incidence ([2]; 72 mg intranasal): 2/30
- Abnormal respiration: bradypnoea, incidence ([2]; 72 mg intranasal): 30/30 ***
- Catalepsy, incidence ([2]; 72 mg intranasal): 30/30 ***
- Chromodacryorrhea, incidence ([2]; 72 mg intranasal): 0/30
- Decreased general activity, incidence ([2]; 72 mg intranasal): 30/30 ***
- Decubitus, incidence ([2]; 72 mg intranasal): 30/30 ***
- Increased general activity, incidence ([2]; 72 mg intranasal): 29/30 ***
- Narrowed palpebral fissure, incidence ([2]; 72 mg intranasal): 22/30 ***
- Piloerection, incidence ([2]; 72 mg intranasal): 0/30
- Salivation (out of normal), incidence ([2]; 72 mg intranasal): 29/30 ***

Compound: CNC1(c2ccccc2Cl)CCCCC1=O (racemic) [ketamine]
- Mutagenicity [11]: positive
- NOAEL for neuronal necrosis, multiple of clinical exposure at the MRHD, AUC [12, 25]: 10 times
- NOAEL for neuronal necrosis, multiple of clinical exposure at the MRHD, Cmax [12, 25]: 16 times
- NOAEL for neuronal vacuolation, multiple of clinical exposure at the MRHD, AUC [12, 25]: 1.6 times
- NOAEL for neuronal vacuolation, multiple of clinical exposure at the MRHD, Cmax [12, 25]: 4.5 times
- Dose causing neuronal vacuolation in layer I of the retrosplenial cortex without neuronal necrosis ([12]; single subcutaneous dose): 60 mg/kg
- NOAEL [13]: 15 mg/kg
- Esketamine AUC at the NOAEL, multiple of AUC at the MRHD of 84 mg/day [14]: 12 times
- NOAEL [15]: 150 mg/kg/day
- Genotoxicity [16]: did not show genotoxic properties
- ED50-value for the induction of neuronal vacuolation in the PCG/RSC [17]: 47.5 mg/kg body weight
- Mutagenicity [18]: not mutagenic
- Esketamine exposure (AUC) at the NOAEL for skeletal malformations, multiple of exposure at MRHD of 84 mg/day [19]: 0.3 times
